This note sets out measurements from paper PMC6013495, “Development of a Novel Backbone Cyclic Peptide Inhibitor of the Innate Immune TLR/IL1R Signaling Protein MyD88” (Scientific Reports, 2018).

The target of assay [1] is T1, human MyD88 TIR domain (aa 150–296) (Homo sapiens, UniProt Q99836).
T1 construct: human MyD88 TIR domain residues 150–296; His tag; made in house; host or cells: E. coli BL21 C43 (DE3)
Kind of assay: Competitive binding assay, Biotin-MyDI on recombinant SUMO-MyD88-TIR. As to conditions: SUMO-MyD88-TIR 8 µg/ml coated, Streptavidin-HRP read-out. An excerpt:
A synthetic DNA fragment corresponding to the cDNA encoding human MyD88 TIR domain residues 150–296 with BamH/Xhol restriction enzymes was from IDT (Integrated DNA technologies, IA, USA). DNA was amplified with the Ready-mix PCR kit (Sigma), and ligated (New England BioLabs, MA, USA) with the restriction enzymes BamH and Xhol (TaKaRa, Kusatsu, Shiga Prefecture, Japan) to pETM-11 SUMO3GFP fusion vector for protein expression in E. coli, a gift from the EMBL protein expression and purification core facility. Plasmids were gel purified with PureLink Quick Gel Extraction kit (Invitrogen, San Diego, CA, USA), sequence verified, and transformed to (C2987) NEB Dh5a competent cells (New England BioLabs) and amplified with a QIAGEN plasmid midiprep kit. The recombinant fusion protein- SUMO-MyD88-TIR was expressed in E. coli BL21 C43 (DE3) cells (Lucigen, WI, USA). E. coli BL21 C43(DE3) were grown in 2xYT medium containing 1% glucose, […] MgSO4 and 20xNPS (100 mM PO4, 25mMSO4, 50 mM NH4. 100 mM Na, 50 mM K) up to mid-log phase (O.D-0.6) in 37 °C and then were grown o.n at 25 °C with 0.4 mM IPTG (Sigma). […]
The recombinant SUMO-MyD88-TIR protein (8 µg/ml) was attached to polystyrene microtiter 96 well plates (Nunc, Roskilde, Denmark) at 4 °C o.n. […] After 5 min, 2 N sulfuric acid stop solution was added and absorbance was read at 450 nm in an Infinite 200 Pro plate reader (Tecan). […]

Assay [2] has as its target T2, SUMO protein fused to eGFP (Homo sapiens, UniProt P55854).
T2 construct: His tag; made in house; host or cells: E. coli BL21 C43 (DE3)
The assay can be described thus: Binding of Biotin-MyDI to control SUMO-eGFP fusion protein. As to conditions: SUMO-eGFP coated, Streptavidin-HRP read-out.

T1 sequence (Q99836 150-296): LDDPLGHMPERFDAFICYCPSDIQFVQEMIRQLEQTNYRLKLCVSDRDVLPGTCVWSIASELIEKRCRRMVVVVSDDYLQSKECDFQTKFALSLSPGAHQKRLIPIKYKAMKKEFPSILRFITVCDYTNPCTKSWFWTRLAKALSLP

As to “Biotin-MyDI: Biotinylated linear BB loop peptide RDVLPGT, from Bio Basic Inc.”, the “binding to the MyD88 TIR domain” value in assay [1] was “bound the TIR domain in a concentration dependent manner”. The “binding to control fusion protein” value in assay [2] is “did not bind at any concentration”.
